Where two headings read alike, the source gives them in different places.
Legend:
ST486 = experiment: OncoPanel cell proliferation assay, ST486; assay type: cell-based, human; conditions: for Relative cell count (%) Mean: ST486
Description: (§1) Cells were grown in RPMI 1640, 10% FBS, 2 mM L-alanyl-L-glutamine, 1 mM Na pyruvate, or a special medium. Cells were seeded into 384-well plates and incubated in a humidified atmosphere of 5% CO2 at 37° C. Compounds were added the day following cell seeding. At the same time, a time zero untreated cell plate was generated. After a 3-day incubation period, cells were fixed and stained to allow fluorescence imaging of nuclei. Compounds (1 mM stock solutions) were serially diluted in half-log steps from the highest test concentration ([…]), and assayed over 10 concentrations with a maximum assay concentration of 0.1% DMSO. Automated fluorescence microscopy was carried out using a Molecular Devices ImageXpress Micro XL high-content imager, and images were collected with a 4× objective. 16-bit TIFF images were acquired and analyzed with MetaXpress 5.1.0.41 software.
(§2) Cell proliferation was measured by the fluorescence intensity of an incorporated nuclear dye. The output is referred to as the relative cell count, where the measured nuclear intensity is transformed to percent of control (POC) using the following formula: […]
(§3) Cellular response parameters were calculated using nonlinear regression to a sigmoidal single-site dose response model:
(§4) Where y is a response measured at concentration x, A and B are the lower and upper limits of the response, C is the concentration at the response midpoint (EC50), and D is the Hill Slope (Ref. 1).
(§5) EC50 is the test compound concentration at the curve inflection point or half the effective response (parameter C of the fitted curve solution). GI50 is the concentration needed to reduce the observed growth by half (midway between the curve maximum and the time zero value). “Cell Count Activity Area” is an estimate of the integrated area above the curve (Barretina, et al. The Cancer Cell Line Encyclopedia enables predictive modelling of anticancer drug sensitivity. Nature 483: 603-607). […] In rare instances, values <0 or >10 may be observed. […] Curve-fitting, calculations, and report generation was performed using a custom data reduction engine and MathIQ based software (AIM).

T24 = experiment: OncoPanel cell proliferation assay, T24; assay type: cell-based, human; conditions: for Relative cell count (%) Mean: T24
Description: as §1, §2, §3, §4, §5

TF-1 = experiment: OncoPanel cell proliferation assay, TF-1; assay type: cell-based, human; conditions: for Relative cell count (%) Mean: TF-1
Description: as §1, §2, §3, §4, §5

RKOE6 = experiment: OncoPanel cell proliferation assay, RKOE6; conditions: for Relative cell count (%) Mean: RKOE6
Description: (§6) Cells were seeded into 384-well plates and incubated in a humidified atmosphere of 5% CO2 at 37° C. Compounds were added the day following cell seeding. At the same time, a time zero untreated cell plate was generated. After a 3-day incubation period, cells were fixed and stained to allow fluorescence imaging of nuclei. Compounds (1 mM stock solutions) were serially diluted in half-log steps from the highest test concentration (1 micromol), and assayed over 10 concentrations with a maximum assay concentration of 0.1% DMSO. Automated fluorescence microscopy was carried out using a Molecular Devices ImageXpress Micro XL high-content imager, and images were collected with a 4× objective. 16-bit TIFF images were acquired and analyzed with MetaXpress 5.1.0.41 software.
(§7) GI50 is the concentration needed to reduce the observed growth by half (midway between the curve maximum and the time zero value). […] In rare instances, values <0 or >10 may be observed. […] Curve-fitting, calculations, and report generation was performed using a custom data reduction engine and MathIQ based software (AIM).

CAMA-1 = experiment: OncoPanel cell proliferation assay, CAMA-1; conditions: for Relative cell count (%) Mean: CAMA-1
Description: as §6, §7

OVCAR3 = experiment: OncoPanel cell proliferation assay, OVCAR3; conditions: for Relative cell count (%) Mean: OVCAR3
Description: as §6, §7

SK-UT-1 = experiment: OncoPanel cell proliferation assay, SK-UT-1; conditions: for Relative cell count (%) Mean: SK-UT-1
Description: as §6, §7

## CO[C@H]1C[C@@H]2CC[C@@H](C)[C@@](O)(O2)C(=O)C(=O)N2CCCC[C@H]2C(=O)O[C@H]([C@H](C)C[C@@H]2C[C@@H]3C[C@H]2C[C@H]3O)CC(=O)[C@H](C)/C=C(\C)[C@@H](O)[C@@H](OC)C(=O)[C@H](C)C[C@H](C)/C=C/C=C/C=C/1C [Formula I, 37R-hydroxynorbornylrapamycin]
ST486; Homo sapiens, 72 h, ST486, 3-day incubation, read-out: Cell Count EC50
  EC50: 0.128 nM
ST486; Homo sapiens, 72 h, ST486, 3-day incubation, read-out: Cell Count GI50
  GI50: 0.226 nM
ST486; Homo sapiens, 72 h, ST486, 3-day incubation, read-out: Cell Count IC50
  IC50: > 1000 nM
ST486; ST486, scale 0-10
  Cell Count Activity Area: 3.70
ST486; 1.00E+00 microM
  Relative cell count (%) Mean: 50.5%
ST486; 1.00E−01 microM
  Relative cell count (%) Mean: 58.5%
ST486; 1.00E−02 microM
  Relative cell count (%) Mean: 56.8%
ST486; 1.00E−03 microM
  Relative cell count (%) Mean: 61.1%
ST486; 1.01E−04 microM
  Relative cell count (%) Mean: 81.6%
ST486; 3.16E−01 microM
  Relative cell count (%) Mean: 51.1%
ST486; 3.17E−02 microM
  Relative cell count (%) Mean: 54.8%
ST486; 3.17E−03 microM
  Relative cell count (%) Mean: 56.0%
ST486; 3.18E−04 microM
  Relative cell count (%) Mean: 63.3%
ST486; 3.18E−05 microM
  Relative cell count (%) Mean: 90.7%
T24; Homo sapiens, T-24, 72 h, T24, 3-day incubation, read-out: Cell Count EC50
  EC50: 0.102 nM
T24; Homo sapiens, T-24, 72 h, T24, 3-day incubation, read-out: Cell Count GI50
  GI50: 0.475 nM
T24; Homo sapiens, T-24, 72 h, T24, 3-day incubation, read-out: Cell Count IC50
  IC50: 0.905 nM
T24; T24, scale 0-10
  Cell Count Activity Area: 4.92
T24; 1.00E+00 microM
  Relative cell count (%) Mean: 38.7%
T24; 1.00E−01 microM
  Relative cell count (%) Mean: 41.3%
T24; 1.00E−02 microM
  Relative cell count (%) Mean: 43.9%
T24; 1.00E−03 microM
  Relative cell count (%) Mean: 49.5%
T24; 1.01E−04 microM
  Relative cell count (%) Mean: 68.7%
T24; 3.16E−01 microM
  Relative cell count (%) Mean: 37.1%
T24; 3.17E−02 microM
  Relative cell count (%) Mean: 42.0%
T24; 3.17E−03 microM
  Relative cell count (%) Mean: 46.0%
T24; 3.18E−04 microM
  Relative cell count (%) Mean: 57.0%
T24; 3.18E−05 microM
  Relative cell count (%) Mean: 84.1%
TF-1; Homo sapiens, 72 h, TF-1, 3-day incubation, read-out: Cell Count EC50
  EC50: > 1000 nM
TF-1; Homo sapiens, 72 h, TF-1, 3-day incubation, read-out: Cell Count GI50
  GI50: > 1000 nM
TF-1; Homo sapiens, 72 h, TF-1, 3-day incubation, read-out: Cell Count IC50
  IC50: > 1000 nM
TF-1; TF-1, scale 0-10
  Cell Count Activity Area: 1.64
TF-1; 1.00E+00 microM
  Relative cell count (%) Mean: 80.6%
TF-1; 1.00E−01 microM
  Relative cell count (%) Mean: 80.1%
TF-1; 1.00E−02 microM
  Relative cell count (%) Mean: 81.1%
TF-1; 1.00E−03 microM
  Relative cell count (%) Mean: 87.4%
TF-1; 1.01E−04 microM
  Relative cell count (%) Mean: 97.8%
TF-1; 3.16E−01 microM
  Relative cell count (%) Mean: 80.1%
TF-1; 3.17E−02 microM
  Relative cell count (%) Mean: 81.3%
TF-1; 3.17E−03 microM
  Relative cell count (%) Mean: 88.0%
TF-1; 3.18E−04 microM
  Relative cell count (%) Mean: 88.0%
TF-1; 3.18E−05 microM
  Relative cell count (%) Mean: 96.7%
RKOE6; Homo sapiens, RKOE6, 72 h, read-out: Cell Count EC50
  EC50: 0.201 nM
RKOE6; Homo sapiens, RKOE6, 72 h, read-out: Cell Count GI50
  GI50: 1.07 nM
RKOE6; Homo sapiens, RKOE6, 72 h, read-out: Cell Count IC50
  IC50: 2.88 nM
RKOE6; RKOE6, scale 0-10
  Cell Count Activity Area: 4.44
RKOE6; 1.00E+00 microM
  Relative cell count (%) Mean: 41.6%
RKOE6; 1.00E−01 microM
  Relative cell count (%) Mean: 43.0%
RKOE6; 1.00E−02 microM
  Relative cell count (%) Mean: 47.6%
RKOE6; 1.00E−03 microM
  Relative cell count (%) Mean: 55.7%
RKOE6; 1.01E−04 microM
  Relative cell count (%) Mean: 73.6%
RKOE6; 3.16E−01 microM
  Relative cell count (%) Mean: 41.0%
RKOE6; 3.17E−02 microM
  Relative cell count (%) Mean: 42.9%
RKOE6; 3.17E−03 microM
  Relative cell count (%) Mean: 52.5%
RKOE6; 3.18E−04 microM
  Relative cell count (%) Mean: 66.1%
RKOE6; 3.18E−05 microM
  Relative cell count (%) Mean: 92.5%
CAMA-1; CAMA-1, scale 0-10
  Cell Count Activity Area: 4.42
CAMA-1; 1.00E+00 microM
  Relative cell count (%) Mean: 44.1%
CAMA-1; 1.00E−01 microM
  Relative cell count (%) Mean: 45.8%
CAMA-1; 1.00E−02 microM
  Relative cell count (%) Mean: 51.2%
CAMA-1; 1.00E−03 microM
  Relative cell count (%) Mean: 53.9%
CAMA-1; 1.01E−04 microM
  Relative cell count (%) Mean: 86.0%
CAMA-1; 3.16E−01 microM
  Relative cell count (%) Mean: 46.2%
CAMA-1; 3.17E−02 microM
  Relative cell count (%) Mean: 48.8%
CAMA-1; 3.17E−03 microM
  Relative cell count (%) Mean: 50.2%
CAMA-1; 3.18E−04 microM
  Relative cell count (%) Mean: 66.1%
CAMA-1; 3.18E−05 microM
  Relative cell count (%) Mean: 97.5%
CAMA-1; Homo sapiens, CAMA-1, 72 h, read-out: Cell Count EC50
  EC50: 0.174 nM
CAMA-1; Homo sapiens, CAMA-1, 72 h, read-out: Cell Count GI50
  GI50: 0.239 nM
CAMA-1; Homo sapiens, CAMA-1, 72 h, read-out: Cell Count IC50
  IC50: 1.28 nM
OVCAR3; Homo sapiens
  EC50: 650 nM
OVCAR3; Homo sapiens, OVCAR-3, 72 h, read-out: Cell Count EC50
  EC50: 646 nM
OVCAR3; Homo sapiens, OVCAR-3, 72 h, read-out: Cell Count GI50
  GI50: 65.8 nM
OVCAR3; Homo sapiens, OVCAR-3, 72 h, read-out: Cell Count IC50
  IC50: > 1000 nM
OVCAR3; OVCAR3, scale 0-10
  Cell Count Activity Area: 2.43
OVCAR3; 1.00E+00 microM
  Relative cell count (%) Mean: 61.8%
OVCAR3; 1.00E−01 microM
  Relative cell count (%) Mean: 72.8%
OVCAR3; 1.00E−02 microM
  Relative cell count (%) Mean: 85.0%
OVCAR3; 1.00E−03 microM
  Relative cell count (%) Mean: 90.2%
OVCAR3; 1.01E−04 microM
  Relative cell count (%) Mean: 93.3%
OVCAR3; 3.16E−01 microM
  Relative cell count (%) Mean: 61.7%
OVCAR3; 3.17E−02 microM
  Relative cell count (%) Mean: 79.9%
OVCAR3; 3.17E−03 microM
  Relative cell count (%) Mean: 85.2%
OVCAR3; 3.18E−04 microM
  Relative cell count (%) Mean: 89.7%
OVCAR3; 3.18E−05 microM
  Relative cell count (%) Mean: 106.9%
SK-UT-1; Homo sapiens, SK-UT-1, 72 h, read-out: Cell Count EC50
  EC50: 0.284 nM
SK-UT-1; Homo sapiens, SK-UT-1, 72 h, read-out: Cell Count GI50
  GI50: 2.01 nM
SK-UT-1; Homo sapiens, SK-UT-1, 72 h, read-out: Cell Count IC50
  IC50: 11.7 nM
SK-UT-1; SK-UT-1, scale 0-10
  Cell Count Activity Area: 3.95
SK-UT-1; 1.00E+00 microM
  Relative cell count (%) Mean: 50.0%
SK-UT-1; 1.00E−01 microM
  Relative cell count (%) Mean: 57.6%
SK-UT-1; 1.00E−02 microM
  Relative cell count (%) Mean: 52.2%
SK-UT-1; 1.00E−03 microM
  Relative cell count (%) Mean: 72.8%
SK-UT-1; 1.01E−04 microM
  Relative cell count (%) Mean: 94.8%
SK-UT-1; 3.16E−01 microM
  Relative cell count (%) Mean: 48.7%
SK-UT-1; 3.17E−02 microM
  Relative cell count (%) Mean: 53.1%
SK-UT-1; 3.17E−03 microM
  Relative cell count (%) Mean: 57.1%
SK-UT-1; 3.18E−04 microM
  Relative cell count (%) Mean: 72.6%
SK-UT-1; 3.18E−05 microM
  Relative cell count (%) Mean: 98.4%

Reference: patent US20210024542A1 (Torcept Therapeutics, Inc., priority 2018, published 2021)
